Measured values: patent US20220304942A1, “TREATMENT OF OBESITY AND RELATED CONDITIONS” (University of Greenwich, priority 2019, published 2022)

How the values were obtained:
[1] = tested on: WT mice; test: Longer term dosing of 2,3-butanediol to WT mice, with washout cohort; format: in vivo
Experimental: Male mice were dosed with 200 mg/kg/day 2,3-butanediol from age 8 weeks to age 29 weeks. Mice were housed 4 to a cage. […], treatment was removed from one cohort, called the ‘washout 6 weeks’. Treatment continued in one cohort, called ‘treatment throughout’. Urine collected 1 week following removal of 2,3-butanediol confirmed the absence of 2,3-butanediol in the washout cohorts. At the end of the experiment blood was collected and plasma isolated and analysed. Mice were culled, and final body weights and epidydimal fat deposits recorded.

[2] = tested on: male, wild-type C57BL/6 mice; test: Short term (four-week) dosing of 2,3-butanediol in drinking water to wild-type mice; format: in vivo; details: 28 days
Experimental: 2,3-butanediol was then administered over a four-week dosing period to wild-type mice. The 2,3-butanediol was delivered to male, wild-type C57BL/6 mice in drinking water, from 13 to 17 weeks of age. Dose delivery estimation was based on mouse average water consumption. Groups of male mice were either untreated, treated with 60, 250 or 600 mg/kg 2,3-butanediol in their drinking water. Water was changed twice weekly. Weights of mice and food intake were recorded. Urine was collected on day 0 (age 13 weeks, pre-treatment) and at 28 days post-treatment (mice aged 17 weeks) and analysed for 2,3-butanediol.
Blood was collected on day 0 (age 13 weeks) and at 28 days post-treatment (mice aged 17 weeks). Plasma was isolated and analysed. At termination of experiment, epidydimal fat pads (EWAT) were weighed and expressed as EWAT:Body weight ratios, […]

[3] = tested on: Sprague-Dawley rat adipocytes; details: cited from earlier work
[4] = 200 mg/kg/day from age 8 weeks to age 29 weeks, male mice
[5] = 200 mg/kg/day from age 8 weeks, treatment removed at age 22 weeks, 6 week washout on water alone
[6] = 60, 250 or 600 mg/kg in drinking water
[7] = 250 and 600 mg/kg/day doses in drinking water

CC(O)C(C)O (stereo not drawn) [2,3-butanediol]
fat (EWAT/body weight) [1, 4]: significant reductions
plasma cholesterol [1, 4]: significant reductions
treatment effect on fat (EWAT/body weight) after washout [1, 5]: persistent
treatment effect on plasma cholesterol after washout [1, 5]: persistent
2,3-butanediol in urine after removal of treatment ([1]; urine collected 1 week following removal of 2,3-butanediol, washout cohorts): absence
plasma cholesterol ([2]; 250 mg/kg/day dose in drinking water): significantly reduced
Epididymal white adipose tissue (EWAT) to body weight ratios ([2]; 250 mg/kg/day dose in drinking water, mice aged 13 to 17 weeks): significantly reduced
plasma alanine aminotransferase [2, 6]: No changes
plasma alkaline phosphatase [2, 6]: No changes
plasma aspartate aminotransferase [2, 6]: No changes
Plasma free fatty acids [2, 7]: significantly reduced
Plasma lactate dehydrogenase [2, 7]: significantly reduced
Plasma triglycerides [2, 7]: significantly reduced
14C-glucose incorporation into triglyceride glycerol ([3]; at higher concentrations): inhibitor
14C-glucose incorporation into triglyceride fatty acid [3]: potent inhibitor
